The record followed here is patent publication US9347179B2, “Methods of preserving starch in pulp and controlling calcium precipitation and/or scaling” (Buckman Laboratories International, Inc., priority 2012, dated 2016).

SMILES strings stand for the structures.

The subject of this experiment is α-amylase (BUZYME 2508). Nature of the experiment: α-amylase activity test with RED-STARCH substrate in paper mill process water. Type of experiment: biochemical. Particulars: for effect on the α-amylase activity (in words): high demand solution containing α-amylase, NaOCl at between 10% to 50% of actual chlorine demand; for α-amylase activity: 15 minutes at 40° C. before substrate, 30 minutes at 40° C., percentage of the maximum reading. How it is done: In the experiments described below, amylase activity was measured using a synthetic α-amylase substrate, “RED-STARCH” obtained from MEGAZYME® (Ireland), and a test procedure developed that allows the use of this substrate in complex paper mill process waters including samples containing cellulose.
The indicated test procedure developed for testing paper mill samples for α-amylase activity includes preparation of the substrate by adding 1 g of powdered RED-STARCH substrate to 50 mL of 0.5 M KCl solution ([…]), and warming up to 60° C. whilst shaking vigorously until dissolved. The prepared substrate can be used fresh or stored under refrigeration until used. A concentrated assay buffer solution was prepared as a 300 mM CaCl2.2H2O solution (39.2 g/l), which for use, is diluted 200 times in the assay. Assays can be performed on any liquid sample recovered in a paper mill. Samples with high turbidity may interfere with the final measurement step. Accordingly, samples containing fiber can be filtered through a paper filter, and liquid from high consistency samples can be recovered by squeezing liquid from the sample. To perform the assay on a sample, 30 μl assay buffer, 3 ml RED-STARCH substrate solution, and a 3 ml test sample solution can be added to a 35 ml test vial, and mix and incubate the vial and contents at constant temperature (35-40° C.) for 30 minutes. The reaction is ended by adding 10 ml ethanol (denatured) or methanol and shaking vigorously, and then allowing the vial and its contents to stand for 2 minutes before filtering the contents through a paper filter. High molecular weight material can be removed by the filtering. Using a 10 ml syringe, the filtered liquid is passed through a 0.22 or 0.45 μm disposable filter cartridge. The liquid that passes through the cartridge is introduced into a spectrophotometer cuvette, and the absorbance (OD) of the reaction solution, and a separate reaction blank, are measured using a spectrophotometer. The reaction blank is prepared by adding 10 ml ethanol or methanol to a test vial first, then add 30 μl assay buffer, 3 ml red starch substrate solution, and a 3 ml test solution, and prepare the samples for measurement as above. The spectrophotometer can be a Hach DR/890 Colorimeter (Hach Company, Loveland Colo.), or other spectrophotometer device. Absorbance can be measured as optical density (OD). On incubation of the RED-STARCH substrate with α-amylase, the substrate can be depolymerized to produce low molecular weight dyed fragments which remain in solution on addition of alcohol to the reaction mixture. The measured value of OD is directly proportional to the α-amylase activity in the test sample. Most spectrophotometers have a scale that reads in OD (absorbance) units, which is a logarithmic scale. A user edited program can be entered into the DR/890 device, including choosing a wavelength of 510 nm at which absorbance is measured, using water as a blank (OD=0), and preparing a maximum α-amylase activity sample by adding a small amount of BUZYME® 2508 (Buckman Laboratories, Belgium) to water and using this in the assay (max. OD that can be measured is approximately 25). The range that is obtained with this program is very large and can suffice for all paper mill samples. Using this testing procedure, paper mill samples typically have absorbance values in the range of 1-7. If a sample gives a maximum reading, it can be diluted in water to determine a more precise value. Results can be represented as the actual number or as a percentage of the maximum reading of the procedure which is 25. The results in Table 1 below show results for α-amylase activity as a percentage of the maximum reading.
In the tests conducted, process water was used that was taken from a coated paper machine pulper fill water tank that was not being treated with an oxidizing program. First, the actual chlorine and monochloramine (NH2Cl) demands of this process water were determined (Table 1). […]

Where [1] appears, read: oxidant added at 10.0% of demand.
[2] abbreviates: oxidant added at 25.0% of demand.
Setting [3] is: oxidant added at 50% of demand (NaOCl printed 50/0%).
The mark [4] stands for this setting: oxidant added at 100.0% of demand.

As to `OCl` [NaOCl, sodium hypochlorite], the “effect on the α-amylase activity (in words)” value was “effective to reduce the α-amylase activity”. In addition, the “activity to inactivate amylases (in words)” value (in direct tests) is on record as “very efficient”. Further, the α-amylase activity under setting [1] is 99.2%. Moreover, the α-amylase activity under setting [2] worked out at 87.4%. Under setting [3], this compound registered a α-amylase activity of 43.8%. Further, the α-amylase activity under setting [4] was 2.1%.
For `NCl` [NH2Cl, monochloramine], the “effect on the α-amylase activity (in words)” value is given as “no significant effect”. The α-amylase activity under setting [1] stood at 100.0%. Moreover, the α-amylase activity under setting [2] was determined as 98.5%. Further, the α-amylase activity under setting [3] turned out to be 99.3%. The same compound yielded a α-amylase activity under setting [4] of 99.1%.
